Tests used:
[1] = Appearance of formulation (state at 25° C.); type: physicochemical; conditions: 25° C.
Description: Formulations 1 to 427 shown in Tables 1A to 1D were prepared by the above-described method using the components (A) and (B) at the compounding molar ratios shown in the tables, and their states at 25° C. were observed.

Escherichia coli [2] = assay: Antibacterial property evaluation 1 (minimum inhibitory concentration, broth microdilution); type: cell-based; conditions: broth microdilution method
Source text: (§1) The following reagents, etc, were used for minimum inhibitory concentration (MIC) measurement and halo test. • Staphylococcus aureus: strain of NBRC15035, NITE • Escherichia coli: strain of […], NITE • Potassium lactate manufactured by Fujifilm Wako Pure Chemical • Medium of Muller-Hinton broth: Becton, Dickinson and Company • Media for revival of L-dried specimens “DAIGO” manufactured by Fujifilm Wako Pure Chemical • Calcium chloride manufactured by Fuji Film Wako Pure Chemical • Magnesium chloride manufactured by Fuji Film Wako Pure Chemical • Skim milk: Megmilk Snow Brand • Meat extract: from Solabia Biokar Diagnostics • Peptone: from Solabia Biokar Diagnostics • Sodium chloride manufactured by Fuji Film Wako Pure Chemical • Agar manufactured by Fuji Film Wako Pure Chemical
(§2) Working examples 556 to 583 and the comparative example 19 shown in Tables 8A and 8B were subjected to the minimum inhibitory concentration (MIC) test against Escherichia coli and Staphylococcus aureus by the broth microdilution method (as described in the standard method of the Japanese Society of Chemotherapy) to study antibacterial activities of the formulations (organic salt). Formulation (organic salt) concentrations at 250, 200, 150, 100, 50, 25, 12.5, 8, 4, 2, 0.8, 0.4, 0.2, 0.1, 0.05 mg/mL were evaluated, and the MICs are shown in Tables 8A and 8B.

Staphylococcus aureus [3] = assay: as above; type: cell-based; conditions: broth microdilution method
Source text: as §1, §2

[4] = Water retention evaluation (moisture reduction rate); type: physicochemical; conditions: for Moisture eduction rate / Moisture content before test (A): 80 wt. % aqueous solution; for Moisture eduction rate: 24 hours at 35° C. and 25% RH, calculated from A and B; for Moisture content before test (A): Karl Fischer; for Presence or absence of hydrates: left until the moisture content remained unchanged, based on final moisture content
Description: 80 wt. % aqueous solutions of the formulations (organic salts) of the working examples 428 to 459 and comparative examples 1 to 5 in Tables 2A and 2B were prepared, and the water contents were measured using a Karl Fischer moisture meter (CA-200 manufactured by Mitsubishi Chemical Analytech Co., Ltd.). It was confirmed that the water contents of them were 20.0 wt. % (moisture content before test: A). Each of the 1.0 g samples was added to a screw tube, and left uncovered to stand still for 24 hours in a constant temperature and humidity bath (KCL-2000W manufactured by Tokyo Rikakikai Co., Ltd.) which was set at 35° C. and 25% RH. Moisture contents after being left for 24 hours were measured again (moisture content after test: B) to evaluate their water retention property by using the following formula for calculating the moisture reduction rates. After that, it was left to stand still until the moisture content remained unchanged, and determinations of the hydrate and the number of hydrated water were made based on the final moisture contents. • Moisture content before test: A (%) • Moisture content after test: B (%)

[5] = Appearance of formulation (state at 25° C.); type: physicochemical; conditions: Tables 2A/2B; formulation at the compounding molar ratio listed
[6] = Solubility evaluation of polyoxyethylene alkyl ether (AE) in the formulations; type: physicochemical; conditions: polyoxyethylene alkyl ether (Peletex 2465); left at 25° C. for 24 hours, visual
Description: Into 20 wt. % aqueous solutions of the formulations (organic salts) shown in Table 10 are dissolved methylparaben (manufactured by Tokyo Kasei, hereinafter, paraben) at 1.0 wt. %, 0.5 wt. % and 0.25 wt. % at 80° C. to prepare the respective antibacterial compositions.
Polyoxyethylene alkyl ether (hereinafter referred to as AE) which is an antiviral substance recognized to be effective against viruses was also subjected to the similar procedure to evaluate the solubility based on the above-mentioned criteria. As the AE, Peletex 2465, manufactured by Miyoshi Oil & Fats Co., Ltd., was used. (Table 10)

[7] = Evaluation on permeability to skin (tape stripping, ascorbyl glucoside); type: in vivo; conditions: scale 1(Slow) to 5(Fast), 10 wt. % aqueous solution with 5 wt. % ascorbyl glucoside, layers 1 to 8, 5 test subjects
Description: As for the comparative example 33, ascorbyl glucoside was added so as to be 5% by mass with respect to water to prepare a sample solution. Then, a cotton material impregnated with the prepared 750 μL sample solution was applied to a 1 cm×3 cm area of the inner side of an upper arm for each of the 5 test subjects who have been kept in quiet for 30 minutes under constant temperature and humidity, and allowed to stand still for 5 minutes. After removing the cotton material, a new cotton material was used to remove the sample having been left on the skin surface and then allowed to stand still for 30 minutes. The horns in the first to eighth layers were then harvest from the application site using a Cellotape® (manufactured by Nichiban Co., Ltd.), and all of the layers obtained from the tape were used as samples for assay.
The obtained sample for assay was then extracted with 2 ml of ion-exchange water over the course of 10 min. […] The measured values of the samples for assay that were harvested from the 5 test subjects were averaged, and the averaged value was regarded as the permeation amount (μg/cm^2) to make a comparison of the total permeation amounts for the first to eighth layers. […]

Staphylococcus aureus [8] = assay: Antibacterial property evaluation 2 (halo test 1); type: cell-based; conditions: JISL1902
Source text: The following reagents, etc, were used for minimum inhibitory concentration (MIC) measurement and halo test. • Staphylococcus aureus: strain of NBRC15035, NITE • Escherichia coli: strain of […], NITE • Potassium lactate manufactured by Fujifilm Wako Pure Chemical • Medium of Muller-Hinton broth: Becton, Dickinson and Company • Media for revival of L-dried specimens “DAIGO” manufactured by Fujifilm Wako Pure Chemical • Calcium chloride manufactured by Fuji Film Wako Pure Chemical • Magnesium chloride manufactured by Fuji Film Wako Pure Chemical • […] Snow Brand • Meat extract: from Solabia Biokar Diagnostics • Peptone: from Solabia Biokar Diagnostics • Sodium chloride manufactured by Fuji Film Wako Pure Chemical • Agar manufactured by Fuji Film Wako Pure Chemical […]

Escherichia coli [9] = assay: Antibacterial evaluation of antibacterial composition (with paraben); type: cell-based; conditions: 1.0 mg/mL paraben and/or 1.0 mg/mL formulation
Description: as §2
(§3) Antibacterial compositions prepared to have the composition having the components (A) and (B) and paraben in an equal amount (working examples 597 to 612, wherein 1.0 mg/mL of paraben and 1.0 mg/mL of the respective working examples 597 to 612 are combined to be 2.0 mg/mL of the composition); the comparative example 27 containing only of water and paraben (at the concentration of 1.0 mg/mL of paraben); and reference example 1 containing L-lysine and citric acid (at the concentration of 1.0 mg/mL) were each subjected to a test performed by a method similar to and as explained in the section of 9-1 based on the presence or absence of the bacterial growth to evaluate the presence or absence of the antibacterial activity.

Staphylococcus aureus [10] = assay: as above; type: cell-based; conditions: 1.0 mg/mL paraben and/or 1.0 mg/mL formulation
Description: as §2, §3

[11] = Adhesiveness evaluation (adhesion rate to filter paper); type: physicochemical; conditions: vacuum dehydration for 8 hours at 60° C.
Description: The adhesion rates of the samples were each calculated from the weight change of the filter paper (Table 9). As a blank test, 100 μL of water was dropped on the filter paper, and this filter paper was dried in a vacuum. The change in weight was measured and used as the correction value.

Row | state at 25° C. [1] | Moisture eduction rate [4] [%] | Moisture content before test (A) [4] [%] | Presence or absence of hydrates [4] | state at 25° C. [5] | SMILES | further results
1 | Solid | 87.5 | 20.0 | Absent | Solid | CC(O)C(=O)[O-].[K+] (stereo not shown) [Formulation 428] | MIC Escherichia coli (Escherichia coli [2]): 100 mg/mL; MIC Staphylococcus aureus (Staphylococcus aureus [3]): 150 mg/mL
2 | Solid | 71.5 | 20.0 | Absent | Liquid | CCCCn1cc[n+](C)c1.F[B-](F)(F)F [Formulation 431] | Solubility into 20 wt. % aqueous solution of the formulations: AE [6]: ⊚ (1.0 wt. % or more; no crystal precipitation was observed)
3 | – | 89.7 | 20.0 | Absent | Liquid | OCC(O)CO [Formulation 432] | Relative infiltration rates of active component (ascorbyl glucoside) into skin [7]: 5
4 | Liquid | – | – | – | – | CCO [Formulation 436] | Halo test 1: Presence or absence of halo (Staphylococcus aureus [8]; Concentration 10 Wt. % aqueous solution on filter paper): Absent; Halo test 1: Presence or absence of halo (Staphylococcus aureus [8]; Concentration 50 Wt. % aqueous solution on filter paper): Absent
5 | – | – | – | – | – | COC(=O)c1ccc(O)cc1 [compound 27, methylparaben] | presence or absence of the antibacterial activity (Escherichia coli [9]): does not exhibit any antibacterial activity; presence or absence of the antibacterial activity (Staphylococcus aureus [10]): does not exhibit any antibacterial activity
6 | – | – | – | – | – | CCO [ethanol, reference compound] | presence or absence of halos (halo test 1) (Staphylococcus aureus [8]; Staphylococcus aureus): no halo was observed; adhesion to the filter paper [11]: did not adhere to the filter paper

Row | SMILES | state at 25° C. [1] | Moisture eduction rate [4] [%] | Moisture content before test (A) [4] [%] | Presence or absence of hydrates [4] | state at 25° C. [5] | further results
7 | CCCC[N+](CCCC)(CCCC)CCCC.[Br-] [Formulation 430] | Solid | 70.0 | 20.0 | Absent | Solid | Solubility into 20 wt. % aqueous solution of the formulations: AE [6]: ⊚ (1.0 wt. % or more; no crystal precipitation was observed)

From patent publication US20250186321A1, “FORMULATION USING AMINO ACID AND CARBOXYLIC ACID, ORGANIC SALT, AND COMPOSITION COMPRISING SAME AND USE THEREOF” (MIYOSHI OIL & FAT CO., LTD., priority 2021, published 2025)
